Assay results from patent US10448639B2, “Fungicidal pyrazoles” (FMC CORPORATION, priority 2009, dated 2019).

Experiments:
Botrytis cinerea = assay: Test B: tomato Botrytis, preventive spray on tomato seedlings, visual disease rating; settings: tomato Botrytis, preventive spray; 100 = 100% disease control, 0 = no control
Excerpt: General protocol for preparing test suspensions for Tests A-J: the test compounds were first dissolved in acetone in an amount equal to 3% of the final volume and then suspended at the desired concentration (in ppm) in acetone and purified water (50/50 mix by volume) containing 250 ppm of the surfactant Trem® 014 (polyhydric alcohol esters). The resulting test suspensions were then used in Tests A-J. Spraying a 200 ppm test suspension to the point of run-off on the test plants was the equivalent of a rate of 500 g/ha. Unless otherwise indicated, the rating values indicate a 200 ppm test suspension was used. (An asterisk “*” next to the rating value indicates a 40 ppm test suspension was used.)
The test suspension was sprayed to the point of run-off on tomato seedlings. The following day the seedlings were inoculated with a spore suspension of Botrytis cinerea (the causal agent of tomato Botrytis) and incubated in saturated atmosphere at 20° C. for 48 h, and then moved to a growth chamber at 24° C. for 3 additional days, after which time visual disease ratings were made.

[1] = tested on: Erysiphe graminis f sp. tritici; assay: Test J: wheat powdery mildew, preventive spray on wheat seedlings, visual disease rating; settings: wheat powdery mildew, preventive spray; 100 = 100% disease control, 0 = no control
[2] = tested on: Puccinia recondita f. sp. tritici; assay: Test I: wheat leaf rust, preventive spray on wheat seedlings, visual disease rating; settings: wheat leaf rust, preventive spray; 100 = 100% disease control, 0 = no control
Septoria nodorum = assay: Test F: Septoria glume blotch, preventive spray on wheat seedlings, visual disease rating; settings: Septoria glume blotch on wheat, preventive spray; 100 = 100% disease control, 0 = no control
Alternaria solani = assay: Test C: tomato early blight, preventive spray on tomato seedlings, visual disease rating; settings: tomato early blight, preventive spray; 100 = 100% disease control, 0 = no control
[3] = tested on: Puccinia recondita f. sp. tritici; assay: Test H: wheat leaf rust, curative spray on inoculated wheat seedlings, visual disease rating; settings: wheat leaf rust, curative spray; 100 = 100% disease control, 0 = no control
Septoria tritici = assay: Test G: wheat leaf blotch, preventive spray on wheat seedlings, visual disease rating; settings: wheat leaf blotch, preventive spray; 100 = 100% disease control, 0 = no control

Row | SMILES | Test B rating (% disease control) (Botrytis cinerea) | Test J rating (% disease control) [1] | Test I rating (% disease control) [2] | Test F rating (% disease control) (Septoria nodorum) | Test C rating (% disease control) (Alternaria solani) | Test H rating (% disease control) [3] | Test G rating (% disease control) (Septoria tritici)
1 | Cc1ccc(-c2c(C)nn(C)c2Oc2ccc([N+](=O)[O-])cc2Cl)cc1 [compound 52] | 54% | 64% | 92% | 0% | 0% | 0% | 97%
2 | Cc1nn(Cc2ccccc2)c(Oc2c(F)cc([N+](=O)[O-])cc2F)c1-c1c(F)cc(F)cc1F [compound 53] | 0% | 0% | 0% | 0% | 0% | 0% | 0%
3 | COc1ccc(Oc2c(-c3ccc(C)cc3)c(C)nn2C)c(Cl)c1 [compound 55] | 6% | 73% | 41% | 0% | 0% | 0% | 98%
4 | COc1ccc(Nc2c(-c3ccc(Cl)cc3)c(C)nn2C)cc1 [compound 56] | 43% | 64% | 28% | 0% | 0% | 0% | 99%
5 | COc1ccc(Nc2c(-c3ccc(Cl)cc3Cl)c(C)nn2C)c(OC)c1 [compound 57] | 98% | 0% | 85% | 0% | 0% | 85% | 94%
6 | COc1cc(F)c(-c2c(C)nn(C)c2Nc2c(Cl)cc(OC)cc2OC)c(F)c1 [compound 59] | 94% | 0% | 68% | 0% | 0% | 0% | 88%
7 | COc1ccc(Nc2c(-c3ccc(Cl)cc3)c(C)nn2C)c(Cl)c1 [compound 60] | 75% | 0% | 79% | 0% | 0% | 59% | 97%
8 | CCn1nc(C)c(-c2ccc(Cl)cc2)c1Nc1c(F)cccc1F [compound 61] | 97% | 73% | 38% | 0% | 0% | 0% | 99%
9 | COc1cc(F)c(Nc2c(-c3ccc(Cl)cc3Cl)c(C)nn2C)c(F)c1 [compound 62] | 99% | 99% | 99% | 84% | 98% | 98% | 98%
10 | CCn1nc(C)c(-c2c(F)cccc2F)c1Nc1cc(OC)cc(OC)c1 [compound 63] | 0% | 0% | 0% | 0% | 0% | 0% | 0%
11 | Cc1nn(C)c(Oc2ncc(Cl)cc2Cl)c1-c1c(F)cc(F)cc1F [compound 64] | 97% | 98% | 95% | 0% | 80% | 0% | 100%
12 | CCOC(=O)Cn1nc(C)c(-c2c(F)cc(F)cc2F)c1Oc1c(F)cc([N+](=O)[O-])cc1F [compound 65] | 0% | 0% | 58% | 0% | 0% | 0% | 1%
13 | COc1cc(F)c(-c2c(C)nn(C)c2Nc2ccc(C)cn2)c(F)c1 [compound 66] | 100% | 99% | 100% | 0% | 99% | 6% | 100%
14 | Cc1nn(C)c(Nc2ccc(C#N)cn2)c1-c1ccc(F)cc1Cl [compound 67] | 95% | 86% | 95% | 0% | 0% | 24% | 99%
15 | Cc1nn(CC(=O)O)c(Oc2c(F)cc([N+](=O)[O-])cc2F)c1-c1c(F)cc(F)cc1F [compound 68] | 0% | 0% | 0% | 0% | 0% | 6% | 0%
16 | CCn1nc(C)c(-c2ccc(Cl)cc2Cl)c1Nc1ccc(F)cc1F [compound 70] | 99% | 98% | 85% | 0% | 0% | 41% | 99%
17 | CC(=O)Nc1ccc(Oc2c(-c3ccc(F)cc3Cl)c(C)nn2C)c(F)c1 [compound 71] | 93% | 67% | 91% | 0% | 0% | 0% | 96%
18 | COc1ccc(Nc2c(-c3ccc(F)cc3F)c(C)nn2C)cc1OC [compound 72] | 0% | 0% | 0% | 0% | 0% | 59% | 0%
19 | Cc1nn(C)c(Nc2ncc(Cl)cc2Cl)c1-c1ccc(F)cc1Cl [compound 73] | 100% | 99% | 100% | 64% | 99% | 88% | 100%
20 | COc1ccc(Nc2c(-c3ccc(Cl)cc3Cl)c(C)nn2C)cc1OC [compound 74] | 0% | 0% | 0% | 0% | 0% | 4% | 25%
21 | Cc1nn(C)c(Nc2c(F)cc(F)cc2F)c1-c1ccc(Cl)cc1Cl [compound 75] | 100% | 97% | 99% | 98% | 98% | 95% | 99%
22 | COc1cc(F)c(-c2c(C)nn(C)c2Oc2c(F)cc(N)cc2F)c(F)c1 [compound 77] | 99% | 0% | 97% | 0% | 0% | 6% | 95%
23 | COc1cc(F)c(Nc2c(-c3c(F)cc(F)cc3F)c(C)nn2C)c(F)c1 [compound 78] | 99% | 91% | 89% | 0% | 82% | 0% | 98%
24 | Cc1ccc(-c2c(C)nn(C)c2Nc2c(F)cc(F)cc2F)cc1 [compound 79] | 99% | 0% | 55% | 0% | 0% | 0% | 99%
25 | COc1cc(F)c(Nc2c(-c3ccc(C)cc3)c(C)nn2C)c(F)c1 [compound 80] | 100% | 89% | 86% | 0% | 0% | 18% | 99%
